Entries after “also recorded” stand apart in the source; their conditions may differ.
Experiments:
[1] = system: Drosophila ey-Gal4>DI flies; assay: Drosophila DAPT treatments of flies overexpressing Delta (ey-Gal4>DI); format: in vivo
From the text: FIG. 16. Inhibition of NOTCH signaling with GSI can suppress overgrowth caused by overexpression of Delta in vivo. (a) Quantification of NOTCH-like eye growth phenotypes associated with treatment with the presenilin/γ-secretase inhibitor DAPT in flies that overexpressed the NOTCH ligand Delta, during the proliferation phase of eye development. Genotype is ey-Gal4 UAS-DI (hereafter, ey-Gal4>DI). (b) Quantification of other NOTCH-like wing phenotypes (loss of wing margin and small wing size) in the ey-Gal4>DI treated animals. For each of the DAPT concentrations shown, the number of eyes and wings quantified were: n=215 (0 mM of DAPT), n=202 (0.25 mM), n=455 (0.5 mM) and n=318 (1 mM). Representative data from two independent experiments are shown.
Drosophila DAPT treatments. The γ-secretase inhibitor DAPT prevents NOTCH processing, translocation and signaling in cell culture and induces developmental defects in Drosophila similar to those caused by genetic reduction of NOTCH signaling. Stock solutions of the compound in ethanol were added to 2.5 ml of distilled water and dried potato food were prepared. Flies carrying a Delta transgene (UAS-DI) and the eye-specific Gal4 driver, ey-Gal4 (hereafter, ey-Gal4>DI) were kept on standard fly food at 26° C. for 3 days (72 hours) and the progeny were collected and transferred to the vials containing the food mixed with DAPT and allowed to progress through development in the presence of DAPT until closure.

[2] = system: DND41 cells; assay: Cell size (flow cytometry) and cell growth (MTT) assays in DND41 cells; format: cell-based, human; conditions: CompE 100 nM for 4 days
Method: (§1) FIG. 2. PTEN loss and AKT activation induce GSI resistance in T-ALL. […] No protective effect was observed by expression of a control shRNA targeting the luciferase gene (shRNA LUC). Mean FSC-H values for GSI and vehicle only treatment controls are indicated. Bar graphs represent means +/− standard deviation of triplicate samples. P values were derived from Student's t-test.
(§2) Changes in cell size were monitored by flow cytometry after NOTCH1 inactivation by GSI treatment (CompE 100 nM) and upon lentiviral shRNA knock-down of NOTCH1. Cell growth ratios were determined by a colorimetric assay using the Cell Proliferation Kit I (MTT) (Roche) in cells treated with inhibitors or vehicle treated controls.

[3] = system: PTEN; assay: Real-time PCR analysis of PTEN transcript levels upon NOTCH1 inhibition by GSI; format: cell-based, human; conditions: GSI-sensitive/PTEN-positive cells (CUTLL1, HPB-ALL)
From the text: (§3) FIG. 3. NOTCH1 regulates PTEN expression, AKT signaling and glucose metabolism. (a) Real-time PCR analysis of PTEN transcript levels upon NOTCH1 inhibition by GSI in CUTLL1 and HPB-ALL relative to (DMSO) controls. GAPDH levels were used as reference control. (b) Western blot analysis of PTEN and p-AKT (Ser473) in GSI sensitive T-ALL cell lines treated with CompE. AKT and α-Tubulin are shown as loading controls. (c) Real-time PCR analysis of Hes1 and PTEN expression in mouse DN3 thymocytes cocultured with stromal cells (OP9) or stromal cells expressing the NOTCH1 ligand Delta-like-1 (OP9-DL1). Data are means +/− standard deviation of duplicate (day 1) and triplicate (day 2) experiments. […]
Total RNA from T-ALL cell lines was extracted with RNAqueous kit (Ambion) following the manufacturer's instructions. cDNA was generated with the ThermoScript RT-PCR system (Invitrogen) and analyzed by quantitative real-time PCR (SYBR Green RT-PCR Core Reagents kit and the 7300 Real-Time PCR System, both from Applied Biosystems). Similar procedures were used to analyze RNA from DN3 cells purified from OP9 cocultures: Trizol method (Invitrogen) for RNA isolation, Omniscript RT kit (Qiagen) for cDNA synthesis and QuantiTect SYBR Green PCR kit (Qiagen) and the Applied Biosystems Sequence Detection System 7000 for PCR. […]

[4] = system: DELTEX1; assay: Quantitative RT-PCR analysis of DELTEX1 expression in GSI-sensitive and resistant T-ALL cell lines; format: cell-based, human; conditions: Comp E 100 nM, 24 hours
Method: FIG. 8. CompE treatment effectively down regulates the expression of DELTEX1 in GSI-sensitive and resistant T-ALL cells. (a and b) Quantitative RT-PCR analysis of DELTEX1 expression in GSI-sensitive and resistant cell lines after 24 hours of treatment with Comp E (100 nM). Relative expression levels were calculated by the ΔΔCt method using GAPDH as a reference control. Data are means +/− standard deviation.
Total RNA from T-ALL cell lines was extracted with RNAqueous kit (Ambion) following the manufacturer's instructions. cDNA was generated with the ThermoScript RT-PCR system (Invitrogen) and analyzed by quantitative real-time PCR (SYBR Green RT-PCR Core Reagents kit and the 7300 Real-Time PCR System, both from Applied Biosystems). Similar procedures were used to analyze RNA from DN3 cells purified from OP9 cocultures: Trizol method (Invitrogen) for RNA isolation, Omniscript RT kit (Qiagen) for cDNA synthesis and QuantiTect SYBR Green PCR kit (Qiagen) and the Applied Biosystems Sequence Detection System 7000 for PCR. Relative expression levels were based on GAPDH and β-actin as reference controls.

[5] = system: P12ICHIKAWA cells; assay: Glucose uptake and oxidation in P12-ICHIKAWA cells; format: cell-based, human; conditions: CompE 100 nM for 96 hours
From the text: as §3, with “experiments. (d) Glucose uptake analysis in HPB-ALL and P12ICHIKAWA T-ALL cell lines in basal conditions (vehicle treatment only). (e) Glucose oxidation analysis in HPB-ALL and P12-ICHIKAWA T-ALL cell lines in basal conditions (vehicle treatment only).” for “experiments.”
(§4) Glucose uptake and oxidation were analyzed in T-ALL cells treated with GSI (CompE 100 nM for 96 hours) or vehicle only (DMSO) controls. […] For glucose uptake, cells were incubated with 0.1 mM (2 μCi/ml) 2-[3H]-deoxy-glucose, then washed in cold PBS and solubilized in 0.1% SDS and analyzed by scintillation counting. […] Glucose oxidation was measured as the amount of ^14CO2 captured in glass fiber filters previously soaked in 5% KOH. […]

[6] = system: CUTLL1 cells; assay: Cell size (flow cytometry) and cell growth (MTT) assays in CUTLL1 cells; format: cell-based, human; conditions: CompE 100 nM for 4 days
Method: as §1, §2

[7] = system: NOTCH1 processing; assay: Western blot analysis of activated NOTCH1 (NOTCH1IC) in GSI-sensitive and GSI-resistant T-ALL cell lines; format: cell-based, human; conditions: Comp E 100 nM, 24 hours
Method: FIG. 7. CompE treatment effectively blocks NOTCH1 processing in GSI-sensitive and resistant T-ALL cells. Western blot analysis of activated NOTCH1 (NOTCH1IC) levels in GSI-sensitive and resistant cell lines after 24 hours treatment with Comp E (100 nM). α-Tubulin levels are shown as loading control. Lower molecular weight bands correspond to activated NOTCH1 protein in cell lines harboring mutations that result in C-terminal truncations of the PEST domain (NOTCH 1IC-ΔPEST).
(§5) Antibodies against activated NOTCH1 (Val1744, Cell Signaling); PTEN (clone 6H2.1, Cascade Biosciences), phospho-AKT (Ser473), AKT (Cell Signaling), LC3, and α-tubulin (TU-02, Santa Cruz Biotechnology) were used according to standard procedures. PTEN immunostaining of formalin-fixed paraffin-embedded tissue sections was performed after heat-induced epitope retrieval in a microwave in citrate buffer (pH6.0). PTEN antibody (Zymed) was used at a 1:50 dilution. Slides were incubated at room temperature overnight before antigen detection using a Ventana automated staining platform (Ventana) and diaminobenzidine (DAB) detection.

[8] = system: HPB-ALL cells; assay: Glucose uptake and oxidation in HPB-ALL cells; format: cell-based, human; conditions: CompE 100 nM for 96 hours
From the text: as §3, with “experiments. (d) Glucose uptake analysis in HPB-ALL and P12ICHIKAWA T-ALL cell lines in basal conditions (vehicle treatment only). (e) Glucose oxidation analysis in HPB-ALL and P12-ICHIKAWA T-ALL cell lines in basal conditions (vehicle treatment only).” for “experiments.”
as §4

[9] = system: p-AKT (Ser473); assay: Western blot analysis of PTEN and p-AKT (Ser473) in GSI sensitive T-ALL cell lines; format: cell-based, human; conditions: GSI-sensitive/PTEN-positive T-ALL cell lines
From the text: as §3, with “experiments. (d) Glucose uptake analysis in HPB-ALL and P12ICHIKAWA T-ALL cell lines in basal conditions (vehicle treatment only). (e) Glucose oxidation analysis in HPB-ALL and P12-ICHIKAWA T-ALL cell lines in basal conditions (vehicle treatment only). (f) Effects of GSI treatment in glucose uptake in HPB-ALL and P12-ICHIKAWA T-ALL cells. (g) Effects of GSI treatment in glucose oxidation in HPB-ALL and P12-ICHIKAWA T-ALL cells. Data shown in (d) and (f) are means +/− standard deviation of triplicates. Data shown in (e) and (g) are means +/− standard deviation of duplicates. P values in (a) and (c)-(g) were derived from Student's t-test.” for “experiments.”

[10] = system: CUTLL1 cells; assay: Autophagy analysis (electron microscopy, LC3 Western blot) in CUTLL1 cells; format: cell-based, human
Method: FIG. 11. […] (a, b) Transmission electron microscopy analysis of an early pass culture of CUTLL1 cells treated with vehicle control (DMSO) or GSI ([…] CompE) for 6 days. White arrow heads indicate phagosomes. Black arrowheads indicate mitochondria. (c) Quantitation of double membrane structures excluding mitochondria in control (DMSO) and GSI (CompE)-treated cells. Horizontal lines indicate the median. P values were derived from the Wilcoxon rank sum test. (d) Western blot analysis of the phagosome-associated LC3 protein in CUTLL1 cells treated with DMSO or CompE for 48 hours.
as §5
Electron microscopy. […] Double membrane structures, excluding mitochondria, were counted in sample preparations of an early-pass culture of CUTLL1 cells treated with DMSO or CompE (500 nM) for 6 days.

[11] = non-lethal doses (1 mM) in food

Row | SMILES | eye growth induced by Delta overexpression ([1]; ey-Gal4>DI flies, DAPT in food) | wing phenotype ([1]; ey-Gal4>DI flies, DAPT in food) | Delta-induced eye overgrowth [1, 11] | eye and wing size [1, 11] | cell growth [2] | cell size [2] | PTEN expression (transcript levels) [3] | NOTCH1 signaling (DELTEX1 expression) [4] | glucose oxidation [5] | glucose uptake [5] | cell growth [6] | cell size (FSC-H) [6] | NOTCH1 processing (activated NOTCH1, NOTCH1IC levels) [7] | glucose oxidation [8] | glucose uptake [8] | AKT Ser473 phosphorylation [9] | autophagy (transmission electron microscopy, double membrane structures) ([10]; 500 nM CompE for 6 days) | phagosome-associated LC3 protein (Western blot) ([10]; CompE for 48 hours)
1 | C[C@H](NC(=O)Cc1cc(F)cc(F)c1)C(=O)N[C@H](C(=O)OC(C)(C)C)c1ccccc1 [DAPT, N-[N-(3,5-difluorophenacetyl)-L-alanyl]-Sphenylglycine-t-butylester] | suppression of eye overgrowth; also recorded: prevented eye growth induced by Delta overexpression | wing defects equivalent to a genetic reduction of NOTCH activity | inhibits Delta-induced overgrowth | eyes and wings smaller than wild type | – | – | – | – | – | – | – | – | – | – | – | – | – | –
2 | C[C@H](NC(=O)Cc1cc(F)cc(F)c1)C(=O)N[C@H]1N=C(c2ccccc2)c2ccccc2N(C)C1=O [CompE, (2S)-2-{[(3,5-Difluorophenyl)acetyl]amino}-N-[(3S)1-methyl-2-oxo-5-phenyl-2,3-dihydro-1H-1,4-benzodiazepin-3-yl]propanamide] | – | – | – | – | reduced cell growth | cell size defects | significant upregulation of PTEN expression | effectively blocks NOTCH1 signaling and downregulates the expression of genes directly regulated by NOTCH1 | not affected | not affected | decreased cell growth | Decreased cell size | effectively block NOTCH1 processing in all cell lines; also recorded: showed NOTCH1 inhibition | significant reductions | significant reductions | decreased Ser473 phosphorylation on AKT | induces autophagy | induced the LC3-II isoform
